# Source: patent US20190274968A1 (priority 2016, published 2019)
# Test system: luciferase
# Assay type: in vivo, BALB/c mice
# Conditions: LNP with the indicated cationic lipid; 3 μg Luciferase mRNA-LNP intradermal
row,SMILES,delivery of mRNA (expression of luciferase measured by IVIS)
1,CCCCCCCCC(CCCCCC)C(=O)OCCCCCCN(CCCCCCOC(=O)C(CCCCCC)CCCCCCCC)CCN(C)C (stereo not drawn) [Compound I-5],effectively delivered
2,CCCCCCCCC(CCCCCC)C(=O)OCCCCCCCCCN(CCCCCCCCCOC(=O)C(CCCCCC)CCCCCCCC)CCN(C)C (stereo not drawn) [Compound I-6],effectively delivered
3,CCCCCCCCC(=O)N(CCCN(C)C)C(CCCCCCCCC(=O)OCC(CCCC)CCCCCC)CCCCCCCCC(=O)OCC(CCCC)CCCCCC (stereo not drawn) [II-9],effectively delivered
4,CCCCCCCC(=O)N(CCCN(C)C)C(CCCCCCCCC(=O)OC(CCCCCC)CCCCCC)CCCCCCCCC(=O)OC(CCCCCC)CCCCCC [II-10],effectively delivered
5,CCCCCCCCC(=O)N(CCCN(C)C)C(CCCCCCCCC(=O)OC(CCCCCC)CCCCCC)CCCCCCCCC(=O)OC(CCCCCC)CCCCCC [II-11],effectively delivered
6,CCCCCCCCC(CCCCCC)COC(=O)CCCCCCCCC(CCCCCCCCC(=O)OCC(CCCCCC)CCCCCCCC)N(CCCN(C)C)C(=O)CCCCCCC (stereo not drawn) [II-12],effectively delivered
7,CCCCCCCCC(=O)N(CCCN1CCCC1)C(CCCCCCCCC(=O)OCC(CCCC)CCCCCC)CCCCCCCCC(=O)OCC(CCCC)CCCCCC (stereo not drawn) [II-36],effectively delivered
8,CCCCCCCCC(CCCCCC)C(=O)OCCCCCCN(CCCCO)CCCCCCOC(=O)C(CCCCCC)CCCCCCCC (stereo not drawn) [III-3],effectively delivered
9,CCCCCCCCC(CCCCCC)C(=O)OCCCCCCN(CCCCCO)CCCCCCOC(=O)C(CCCCCC)CCCCCCCC (stereo not drawn) [III-7],effectively delivered
